Measurements published in publication PMC11129975, “A first-in-human phase I study of TAS-117, an allosteric AKT inhibitor, in patients with advanced solid tumors” (Cancer Chemotherapy and Pharmacology, 2024).

Assay: Phase I safety: adverse events, adverse drug reactions, DLTs in patients with advanced solid tumors
Type: in vivo, human
Conditions: for Adverse drug reactions: ALT increased / Adverse drug reactions: AST increased / Adverse drug reactions: Any events / Adverse drug reactions: Blood AP increased / Adverse drug reactions: Decreased appetite / Adverse drug reactions: Diarrhea / Adverse drug reactions: Dry skin / Adverse drug reactions: GGT increased / Adverse drug reactions: GI disorders / Adverse drug reactions: General disorders and administration site conditions / Adverse drug reactions: Hyperglycemia / Adverse drug reactions: Investigations / Adverse drug reactions: Metabolism and nutrition disorders / Adverse drug reactions: Nausea / Adverse drug reactions: Neutrophil count decreased / Adverse drug reactions: Pruritus / Adverse drug reactions: Pyrexia / Adverse drug reactions: Rash maculo-papular / Adverse drug reactions: Skin and SC tissue disorders / Adverse drug reactions: Stomatitis / Adverse drug reactions: Vomiting / Adverse drug reactions: WBC count decreased / Adverse events: ALT increased / Adverse events: AST increased / Adverse events: Any events / Adverse events: Blood AP increased / Adverse events: Decreased appetite / Adverse events: Diarrhea / Adverse events: Dry skin / Adverse events: GGT increased / Adverse events: GI disorders / Adverse events: General disorders and administration site conditions / Adverse events: Hyperglycemia / Adverse events: Investigations / Adverse events: Metabolism and nutrition disorders / Adverse events: Nausea / Adverse events: Neutrophil count decreased / Adverse events: Pruritus / Adverse events: Pyrexia / Adverse events: Rash maculo-papular / Adverse events: Skin and SC tissue disorders / Adverse events: Stomatitis / Adverse events: Vomiting / Adverse events: WBC count decreased: DEP n = 12
Excerpt: This was a phase I, open-label, non-randomized, dose-escalating first-in-human study to evaluate the safety, pharmacokinetics, antitumor activity, pharmacodynamics, and pharmacogenomics of TAS-117 in patients with advanced solid tumors. The study had three phases: a dose escalation phase (DEP), a regimen modification phase (RMP), and a safety assessment phase (SAP). The treatment cycle on each regimen lasted 21 days. The DEP used an accelerated titration and 3 + 3 design. TAS-117 was administered orally once daily (QD) on an empty stomach (1 h before or 2 h after a meal). Dosing was determined based on a 4-week repeated oral-dose toxicology study in monkeys (data on file, Taiho Pharmaceutical Co., Ltd.); the highest non-severely toxic dose was 1.2 mg/kg/day, which was converted to 3.84 mg/body/day, or 2.4 mg/m^2. Therefore, the starting dose was determined to be ≤ 2.4 mg/m^2. At dose level 1, TAS-117 was administered at 2 mg QD (Day − 2), and the dose was increased to 4 mg QD after 2 days (Day 1). The RMP was conducted according to a 3 + 3 design. During this phase, the dose regimen was changed from QD administration to intermittent dosing of daily TAS-117 with 4 days on/3 days off. TAS-117 was administered on an empty stomach. Dose-limiting toxicities (DLTs) were evaluated in Cycle 1 of the DEP and RMP. […] The RD and regimen for the SAP were determined based on the safety, pharmacokinetics, pharmacodynamics, and antitumor activity profile determined in the DEP and RMP. During the SAP, the safety and preliminary efficacy profiles of TAS-117 were assessed at the RD and recommended regimen. Three cohorts were included in this assessment. Cohort 1 included patients with endometrial cancer with a PIK3CA mutation; cohort 2 included patients with endometrial cancer with an AKT1 mutation, AKT1 amplification, or AKT2 amplification; and cohort 3 included patients with ovarian clear cell carcinoma.
The primary endpoints were the proportion of patients who experienced DLTs in Cycle 1 of the DEP and RMP and the incidence of adverse events (AEs) and adverse drug reactions (ADRs) in the SAP. AEs and ADRs were coded using the Medical Dictionary for Regulatory Activities (MedDRA; version 24.1) and graded according to the National Cancer Institute Common Terminology Criteria for Adverse Events (CTCAE; version 4.03). Secondary endpoints were pharmacokinetic findings, changes in the ratio of phosphorylated PRAS40 (pPRAS40)/total PRAS40 from baseline, efficacy, and pharmacogenomics findings.

C[C@]1(O)C[C@@](N)(c2ccc(-c3nc4n(c3-c3ccccc3)COc3ccncc3-4)cc2)C1 [TAS-117]
Grade 2 maculopapular rash requiring study interruption (DEP dose level 4 (24 mg QD)): All patients
Adverse drug reactions: ALT increased (All grade): 1 (8.3) n (%)
Adverse drug reactions: AST increased (All grade): 1 (8.3) n (%)
Adverse drug reactions: Any events (All grade): 11 (91.7) n (%)
Adverse drug reactions: Blood AP increased (All grade): 1 (8.3) n (%)
Adverse drug reactions: Decreased appetite (All grade): 2 (16.7) n (%)
Adverse drug reactions: Diarrhea (All grade): 1 (8.3) n (%)
Adverse drug reactions: Dry skin (All grade): 0 (0.0) n (%)
Adverse drug reactions: GGT increased (All grade): 1 (8.3) n (%)
Adverse drug reactions: GI disorders (All grade): 4 (33.3) n (%)
Adverse drug reactions: General disorders and administration site conditions (All grade): 2 (16.7) n (%)
Adverse drug reactions: Hyperglycemia (All grade): 4 (33.3) n (%)
Adverse drug reactions: Investigations (All grade): 5 (41.7) n (%)
Adverse drug reactions: Metabolism and nutrition disorders (All grade): 5 (41.7) n (%)
Adverse drug reactions: Nausea (All grade): 1 (8.3) n (%)
Adverse drug reactions: Neutrophil count decreased (All grade): 3 (25.0) n (%)
Adverse drug reactions: Pruritus (All grade): 1 (8.3) n (%)
Adverse drug reactions: Pyrexia (All grade): 1 (8.3) n (%)
Adverse drug reactions: Rash maculo-papular (All grade): 9 (75.0) n (%)
Adverse drug reactions: Skin and SC tissue disorders (All grade): 11 (91.7) n (%)
Adverse drug reactions: Stomatitis (All grade): 3 (25.0) n (%)
Adverse drug reactions: Vomiting (All grade): 2 (16.7) n (%)
Adverse drug reactions: WBC count decreased (All grade): 3 (25.0) n (%)
Adverse events: ALT increased (All grade): 3 (25.0) n (%)
Adverse events: AST increased (All grade): 3 (25.0) n (%)
Adverse events: Any events (All grade): 11 (91.7) n (%)
Adverse events: Blood AP increased (All grade): 2 (16.7) n (%)
Adverse events: Decreased appetite (All grade): 5 (41.7) n (%)
Adverse events: Diarrhea (All grade): 3 (25.0) n (%)
Adverse events: Dry skin (All grade): 0 (0.0) n (%)
Adverse events: GGT increased (All grade): 2 (16.7) n (%)
Adverse events: GI disorders (All grade): 7 (58.3) n (%)
Adverse events: General disorders and administration site conditions (All grade): 5 (41.7) n (%)
Adverse events: Hyperglycemia (All grade): 4 (33.3) n (%)
Adverse events: Investigations (All grade): 6 (50.0) n (%)
Adverse events: Metabolism and nutrition disorders (All grade): 9 (75.0) n (%)
Adverse events: Nausea (All grade): 2 (16.7) n (%)
Adverse events: Neutrophil count decreased (All grade): 3 (25.0) n (%)
Adverse events: Pruritus (All grade): 1 (8.3) n (%)
Adverse events: Pyrexia (All grade): 1 (8.3) n (%)
Adverse events: Rash maculo-papular (All grade): 9 (75.0) n (%)
Adverse events: Skin and SC tissue disorders (All grade): 11 (91.7) n (%)
Adverse events: Stomatitis (All grade): 3 (25.0) n (%)
Adverse events: Vomiting (All grade): 3 (25.0) n (%)
Adverse events: WBC count decreased (All grade): 3 (25.0) n (%)
Adverse drug reactions: ALT increased (≥ Grade 3): 0 (0.0) n (%)
Adverse drug reactions: AST increased (≥ Grade 3): 0 (0.0) n (%)
Adverse drug reactions: Any events (≥ Grade 3): 3 (25.0) n (%)
Adverse drug reactions: Blood AP increased (≥ Grade 3): 0 (0.0) n (%)
Adverse drug reactions: Decreased appetite (≥ Grade 3): 0 (0.0) n (%)
Adverse drug reactions: Diarrhea (≥ Grade 3): 0 (0.0) n (%)
Adverse drug reactions: Dry skin (≥ Grade 3): 0 (0.0) n (%)
Adverse drug reactions: GGT increased (≥ Grade 3): 0 (0.0) n (%)
Adverse drug reactions: GI disorders (≥ Grade 3): 0 (0.0) n (%)
Adverse drug reactions: General disorders and administration site conditions (≥ Grade 3): 0 (0.0) n (%)
Adverse drug reactions: Hyperglycemia (≥ Grade 3): 2 (16.7) n (%)
Adverse drug reactions: Investigations (≥ Grade 3): 1 (8.3) n (%)
Adverse drug reactions: Metabolism and nutrition disorders (≥ Grade 3): 2 (16.7) n (%)
Adverse drug reactions: Nausea (≥ Grade 3): 0 (0.0) n (%)
Adverse drug reactions: Neutrophil count decreased (≥ Grade 3): 0 (0.0) n (%)
Adverse drug reactions: Pruritus (≥ Grade 3): 0 (0.0) n (%)
Adverse drug reactions: Pyrexia (≥ Grade 3): 0 (0.0) n (%)
Adverse drug reactions: Rash maculo-papular (≥ Grade 3): 0 (0.0) n (%)
Adverse drug reactions: Skin and SC tissue disorders (≥ Grade 3): 0 (0.0) n (%)
Adverse drug reactions: Stomatitis (≥ Grade 3): 0 (0.0) n (%)
Adverse drug reactions: Vomiting (≥ Grade 3): 0 (0.0) n (%)
Adverse drug reactions: WBC count decreased (≥ Grade 3): 1 (8.3) n (%)
Adverse events: ALT increased (≥ Grade 3): 0 (0.0) n (%)
Adverse events: AST increased (≥ Grade 3): 1 (8.3) n (%)
Adverse events: Any events (≥ Grade 3): 3 (25.0) n (%)
Adverse events: Blood AP increased (≥ Grade 3): 1 (8.3) n (%)
Adverse events: Decreased appetite (≥ Grade 3): 0 (0.0) n (%)
Adverse events: Diarrhea (≥ Grade 3): 0 (0.0) n (%)
Adverse events: Dry skin (≥ Grade 3): 0 (0.0) n (%)
Adverse events: GGT increased (≥ Grade 3): 1 (8.3) n (%)
Adverse events: GI disorders (≥ Grade 3): 0 (0.0) n (%)
Adverse events: General disorders and administration site conditions (≥ Grade 3): 0 (0.0) n (%)
Adverse events: Hyperglycemia (≥ Grade 3): 2 (16.7) n (%)
Adverse events: Investigations (≥ Grade 3): 3 (25.0) n (%)
Adverse events: Metabolism and nutrition disorders (≥ Grade 3): 2 (16.7) n (%)
Adverse events: Nausea (≥ Grade 3): 0 (0.0) n (%)
Adverse events: Neutrophil count decreased (≥ Grade 3): 0 (0.0) n (%)
Adverse events: Pruritus (≥ Grade 3): 0 (0.0) n (%)
Adverse events: Pyrexia (≥ Grade 3): 0 (0.0) n (%)
Adverse events: Rash maculo-papular (≥ Grade 3): 0 (0.0) n (%)
Adverse events: Skin and SC tissue disorders (≥ Grade 3): 0 (0.0) n (%)
Adverse events: Stomatitis (≥ Grade 3): 0 (0.0) n (%)
Adverse events: Vomiting (≥ Grade 3): 0 (0.0) n (%)
Adverse events: WBC count decreased (≥ Grade 3): 1 (8.3) n (%)
Recommended dose (RD) (QD dosing, patients with advanced or metastatic solid tumors): 16 mg
DLTs (RMP dose level 4 (24 mg), intermittent administration): No DLTs
